ChEMBL document CHEMBL1143508, “Design, synthesis, and structure-activity relationships of tetrahydroquinoline-based farnesyltransferase inhibitors” (Bioorg Med Chem Lett, 2005)
pIC50: −log10 of the molar value.

Assays:
[1] = molecular target: Protein farnesyltransferase (Rattus norvegicus, UniProt Q02293+Q04631); experiment: Inhibition of cellular reversion in H-ras transformed Rat-1 cells; assay type: functional, cell-based
[2] = molecular target: T1, Protein farnesyltransferase (Rattus norvegicus) (UniProt Q04631+Q02293); experiment: Percentage cellular reversion of H-ras transformed Rat-1 cells at 100 nM; assay type: functional, cell-based
[3] = molecular target: Protein farnesyltransferase (Homo sapiens, UniProt P49354+P49356); experiment: Inhibition of human farnesyltransferase; assay type: protein-complex assay
[4] = molecular target: T1, Protein farnesyltransferase (Rattus norvegicus); experiment: Percentage cellular reversion in H-ras transformed Rat-1 cells at 10 uM; assay type: functional, cell-based
[5] = molecular target: T1, Protein farnesyltransferase (Rattus norvegicus); experiment: Percentage cellular reversion in H-ras transformed Rat-1 cells at 1 uM; assay type: functional, cell-based

| pIC50 [1] | Cellular reversion [2] [%] | pIC50 [3] | Cellular reversion [4] [%] | Cellular reversion [5] [%] | Structure (SMILES) |
| --- | --- | --- | --- | --- | --- |
| 7.89 | 95 | – | – | – | Cn1cncc1CN1CC(N(Cc2ccsc2)S(=O)(=O)c2ccccn2)Cc2cc(C#N)ccc21 (stereo not given) |
| 7.00 | 70 | 8.92 | – | – | C=C(C)CN(C1Cc2cc(C#N)ccc2N(Cc2cncn2C)C1)S(=O)(=O)c1cccnc1 (stereo not given) |
| 6.65 | 30 | 8.41 | – | – | Cn1cncc1CN1CC(N(CC(=O)OC(C)(C)C)S(=O)(=O)c2cccnc2)Cc2cc(C#N)ccc21 (stereo not given) |
| – | 75 | 8.34 | – | – | Cn1cc(S(=O)(=O)N(Cc2ccccc2)C2Cc3cc(C#N)ccc3N(Cc3cncn3C)C2)cn1 (stereo not given) |
| – | 80 | 8.55 | – | – | Cn1cncc1CN1C[C@H](N(Cc2ccsc2)S(=O)(=O)c2ccccc2)Cc2cc(C#N)ccc21 |
| 7.30 | 80 | 9.52 | – | – | C=C(C)CN(C1Cc2cc(C#N)ccc2N(Cc2cncn2C)C1)S(=O)(=O)c1cn(C)cn1 (stereo not given) |
| 7.15 | 85 | 9.05 | – | – | Cn1cncc1CN1CC(N(Cc2ccccc2)S(=O)(=O)c2cccnc2)Cc2cc(C#N)ccc21 (stereo not given) |
| – | 0 | 8.00 | 30 | – | Cn1cncc1CN1CC(NS(=O)(=O)c2ccccc2)Cc2cc(C#N)ccc21 (stereo not given) |
| – | 0 | < 5.30 | – | – | Cn1cncc1CN1CC(N(CCc2ccccc2)S(=O)(=O)c2ccccc2)Cc2cc(C#N)ccc21 (stereo not given) |
| – | 65 | – | – | – | Cn1cnc(S(=O)(=O)N(Cc2ccsc2)C2Cc3cc(C#N)ccc3N(Cc3cncn3C)C2)c1 (stereo not given) |
| – | 75 | 8.96 | – | – | Cn1cnc(S(=O)(=O)N(Cc2ccccc2)C2Cc3cc(C#N)ccc3N(Cc3cncn3C)C2)c1 (stereo not given) |
| – | 0 | 7.77 | – | 10 | CN(C1Cc2cc(C#N)ccc2N(Cc2cncn2C)C1)S(=O)(=O)c1cccnc1 (stereo not given) |
| – | 75 | 8.40 | – | – | Cn1cncc1CN1CC(N(CC(=O)OC(C)(C)C)S(=O)(=O)c2ccccc2)Cc2cc(C#N)ccc21 (stereo not given) |
| – | 85 | 8.96 | – | – | Cn1cncc1CN1C[C@@H](N(Cc2ccsc2)S(=O)(=O)c2ccccc2)Cc2cc(C#N)ccc21 |
| – | 0 | 8.12 | – | 25 | CN(C1Cc2cc(C#N)ccc2N(Cc2cncn2C)C1)S(=O)(=O)c1cnn(C)c1 (stereo not given) |
| – | 85 | 9.05 | – | – | Cn1cncc1CN1CC(N(Cc2ccsc2)S(=O)(=O)c2cccnc2)Cc2cc(C#N)ccc21 (stereo not given) |
| – | 0 | 8.55 | – | 85 | Cn1cncc1CN1CC(N(Cc2ccccc2)S(C)(=O)=O)Cc2cc(C#N)ccc21 (stereo not given) |
| 8.10 | 90 | 9.10 | – | – | C=C(C)CN(C1Cc2cc(C#N)ccc2N(Cc2cncn2C)C1)S(C)(=O)=O (stereo not given) |
| 7.52 | 90 | 9.22 | – | – | Cn1cnc(S(=O)(=O)N(CC(=O)OC(C)(C)C)C2Cc3cc(C#N)ccc3N(Cc3cncn3C)C2)c1 (stereo not given) |
| – | 45 | 8.46 | – | – | CN(C1Cc2cc(C#N)ccc2N(Cc2cncn2C)C1)S(=O)(=O)c1ccccc1 (stereo not given) |
| – | 90 | 8.60 | – | – | Cn1cncc1CN1CC(N(Cc2ccsc2)S(=O)(=O)c2ccccc2)Cc2cc(C#N)ccc21 (racemic) |
| 7.22 | 85 | 9.05 | – | – | C=C(C)CN(C1Cc2cc(C#N)ccc2N(Cc2cncn2C)C1)S(=O)(=O)c1ccccn1 (stereo not given) |
| – | 95 | 9.05 | – | – | C=C(C)CN(C1Cc2cc(C#N)ccc2N(Cc2cncn2C)C1)S(=O)(=O)c1ccccc1 (stereo not given) |
| 8.00 | 85 | – | – | – | Cn1cncc1CN1CC(N(CC(=O)OC(C)(C)C)S(=O)(=O)c2ccccn2)Cc2cc(C#N)ccc21 (stereo not given) |
| > 7.70 | 90 | 8.59 | – | – | Cn1cncc1CN1CC(N(Cc2ccccc2)S(=O)(=O)c2ccccn2)Cc2cc(C#N)ccc21 (stereo not given) |
| – | 0 | 7.32 | – | 90 | Cn1cncc1CN1CC(N(CC2CCCCC2)S(=O)(=O)c2ccccc2)Cc2cc(C#N)ccc21 (stereo not given) |
| – | 85 | 8.52 | – | – | Cn1cncc1CN1CC(N(Cc2ccccc2)S(=O)(=O)c2ccccc2)Cc2cc(C#N)ccc21 (stereo not given) |
| – | 95 | – | – | – | Cn1cc(S(=O)(=O)N(Cc2ccsc2)C2Cc3cc(C#N)ccc3N(Cc3cncn3C)C2)cn1 (stereo not given) |
| – | 0 | 8.51 | – | 85 | CN(C1Cc2cc(C#N)ccc2N(Cc2cncn2C)C1)S(=O)(=O)c1ccccn1 (stereo not given) |
